# Oligonucleotides are written 5' to 3', each unit as a sugar letter and its base; * is a phosphorothioate linkage, no mark a phosphodiester; rarer units and linkages stand in square brackets, end groups in braces. Plain capitals give the bases only. l = locked nucleic acid (LNA); [5mC] = 5-methylcytosine; d = 2'-deoxy (DNA)
# Columns and labels:
# 15PC3 cells = assay: Caspase 3/7 activity (apoptosis) in transfected 15PC3 cells; format: cell-based, human
# Method: (§1) Culturing of cells: 15PC3 was cultured in DMEM (Sigma) containing 10% fetal bovine serum, Glutamax I and gentamicin at 37° C., 95% humidity and 5% CO2. The cervical carcinoma cell line HeLa were cultured in MEM (Sigma) containing 10% fetal bovine serum, Glutamax I and gentamicin at 37° C., 95% humidity and 5% CO2. When reaching 60-70% confluency, the cells were transfected using Lipofectamine 2000 (5 μg/ml).
# 15PC3 cells were seeded to a density of 10000 cells per well in white 96-well plates (Nunc 136101) in DMEM the day prior to transfection. The next day cells were washed once in prewarmed OptiMEM followed by addition of 72 μl OptiMEM containing 5 μg/ml Lipofectamine-2000 (In vitrogen). Cells were incubated for 7 min before adding 18 μl oligonucleotides diluted in OptiMEM. The final oligonucleotide concentration ranged from 0.2 nM to 100 nM. After 4 hours of treatment, cells were washed in OptiMEM and 100 μl DMEM containing serum was added. Following oligonucleotide treatment, cells were allowed to recover for the period indicated before they were removed from the CO2 incubator and equilibrated to room temperature for 15 min. 100 μl of the highly sensitive Caspase 3/7-Glo™ Reagent (Promega) was added directly to the cells, and the plates were incubated for 20 min. Luminescence (luciferase activity) was recorded in a Luminoskan Ascent instrument (Thermo Labsystems). The luciferase activity is measured as Relative Light Units per seconds (RLU/s). The data was analysed using the Ascent software 2.4.2. Graphs of fold induction relative to mock were generated using MS Excel.
# Staurosporine, Camptothecine or Taxol induced cells served as positive controls (see FIGS. 3, 6A and Table 4 plus Example 21).
# HeLa cells = assay: Annexin V-FITC/PI flow cytometry analysis; format: cell-based, human; settings: 5 nM or 25 nM
# Method: as §1
# 0.4×10^6 HeLa cells were seeded in T25 flasks one day prior to transfection. On the day of transfection, the cells were washed once in 37° C. OptiMEM followed by addition of 2.8 ml OptiMEM containing 5 μg/ml Lipofectamine-2000 (In vitrogen). Cells were incubated for 7 min before adding 700 μl oligonucleotides diluted in OptiMEM to a final concentration of 5 nM or 25 nM, Mock transfected cells served as control. After 4 hours of treatment cells were washed in OptiMEM and 3 ml culture medium was added. Following oligonucleotide treatment cells were allowed to recover for 48 hours before they were harvested by scraping and washed twice in PBS. 0.2×10^6 cells were incubated with 5 μl Annexin V-FITC and 10 μl propidium iodide (PI-10 mg/ml) and incubated for 15 min at room temperature in the dark. […] Moreover, TRAIL (Apo2L) induced HeLA cells (0.5 μg/ml) were used as positive control. (See FIG. 4)
# [1] = test system: PC-3 human prostate cancer cells; assay: PC3 xenograft tumour growth inhibition in nude mice; format: in vivo, Balb/cA-nu mice; settings: combined with Taxol, dose schedules A and B, after 27 days, versus single agent treatment or saline
# Method: Model: PC-3 human prostate cancer cells (ECACC) are mixed with Matrigel and injected s.c. into both flanks of female Balb/cA-nu mice on Day 0.
# Dosing: Saline solution of SEQ ID NO. 2 according to schedule, 2 mg/ml working solution, dosing volume 10 ml/kg; Taxol was used in the clinical formulation. The animals were dosed according to the average group weight on Day 0.
# Administration: Oligonucleotides i.p. (see FIG. 8) or intratumoural (see FIG. 9), Taxol i.v., all according to schedule
# Observations: Mortality (daily), body weight (twice per week),
# Tumour volume: During the experiment, tumour volume is measured twice per week and calculated according to the formula (L×D^2×0.5), where L represents the largest diameter and D the tumour diameter perpendicular to L (mm).
# Antitumour activity: Mean tumour weight of treated tumours will be compared with control group.
# End of study: The animals will be sacrificed by cervical dislocation. Tumours, livers and spleens will be weighed.
# rats = assay: i.v. acute toxicity study in rats; format: in vivo
# Source text: For SEQ ID NO. 2 the following was found among others in preclinical toxicity studies: […]
# [2] = Oligonucleotide content in cynomolgus monkey tissues (4 weeks repeat dose study); format: in vivo, cynomolgus monkeys; settings: i.v. twice weekly for four weeks, then 4 weeks untreated
# Method: In an i.v. 4 weeks repeat dose toxicity study in cynomolgus monkeys SEQ ID NO. 2 was administered at doses of 0, 6, 15 and 60 mg/kg/occasion twice weekly for four weeks. In the groups of animals receiving 0, 15 or 60 mg/kg/occasion some animals were followed for a recovery period of 4 weeks without treatment.
# Tissues including liver and kidney samples were snap frozen and stored at −70° C. for subsequent analysis.
# Tissues (˜100 mg) is weighed off (tissue is kept on dry-ice before and after weighing). 500 μl extraction buffer containing proteinase K (1 mg/ml) is added. The tissue is homogenized mechanically and the homogenate is incubated over night at 37° C.
# Reference samples are prepared by dissolving SEQ ID NO. 2 in extraction buffer at the relevant concentration range. Exactly 100 mg liver tissue from un-treated animals is weighed off (kept on dry-ice before and after weighing). Extraction buffer (with proteinase K, 1 mg/ml) containing the reference material is added to the tissue samples to a total volume of 0.5 ml. The tissue is mechanically homogenized and is incubated over night at 37° C. The detection signal of SEQ ID NO. 2 from these samples is used to prepare a standard curve covering the lowest and the highest concentrations found in the treated animals.
# Tissue samples are transferred to 2 ml microtubes with screw caps. […]
substance,measurement,setting,value
5′-^MeCsTs^MeCsAsastscscsastsgsgs^MeCsAsGsc-3′ (l[5mC]*lT*l[5mC]*lA*dA*dT*dC*dC*dA*dT*dG*dG*l[5mC]*lA*lG*dC) [SEQ ID NO. 2],"Apoptosis At 5 nM, 24 hours","15PC3 cells; 5 nM, 24 hours (Table 7, FIG. 3)",3.5-fold
same,Max Apoptosis,"15PC3 cells; 25 nM, 24 hours (Table 7)",6.5-fold
same,"Maximum Induction Fold-induction of apoptosis, Caspase 3/7 assay","15PC3 cells; 25 nM, 48 hours, 15PC3 cells","6.9 x (25 nM, 48 hours)"
same,"Fold induction of apoptosis, Caspase 3/7 assay","15PC3 cells; 24 hours, 5 nM, 15PC3 cells, relative to mock",3.5 x
same,Induction of early and late apoptosis (Annexin V-FITC/PI staining),HeLa cells,dose dependent induction of early and late apoptosis
same,Tumour weight,[1],Tumour weight reduction
same,lowest lethal dose,rats,1000 mg/kg
same,Content in liver of recovery animals,[2],detectable

# From patent US8173428B2, “LNA oligonucleotides and the treatment of cancer” (Santaris Pharma A/S, priority 2004, dated 2012)
